# Legend:
# PKS12 [1] = biological target: T1, PKS12 (Mycobacterium tuberculosis, UniProt I6XD69)
# PKS12 [2] = biological target: T1, PKS12; remark: listed apart in the source
# T1 sequence (I6XD69 whole entry): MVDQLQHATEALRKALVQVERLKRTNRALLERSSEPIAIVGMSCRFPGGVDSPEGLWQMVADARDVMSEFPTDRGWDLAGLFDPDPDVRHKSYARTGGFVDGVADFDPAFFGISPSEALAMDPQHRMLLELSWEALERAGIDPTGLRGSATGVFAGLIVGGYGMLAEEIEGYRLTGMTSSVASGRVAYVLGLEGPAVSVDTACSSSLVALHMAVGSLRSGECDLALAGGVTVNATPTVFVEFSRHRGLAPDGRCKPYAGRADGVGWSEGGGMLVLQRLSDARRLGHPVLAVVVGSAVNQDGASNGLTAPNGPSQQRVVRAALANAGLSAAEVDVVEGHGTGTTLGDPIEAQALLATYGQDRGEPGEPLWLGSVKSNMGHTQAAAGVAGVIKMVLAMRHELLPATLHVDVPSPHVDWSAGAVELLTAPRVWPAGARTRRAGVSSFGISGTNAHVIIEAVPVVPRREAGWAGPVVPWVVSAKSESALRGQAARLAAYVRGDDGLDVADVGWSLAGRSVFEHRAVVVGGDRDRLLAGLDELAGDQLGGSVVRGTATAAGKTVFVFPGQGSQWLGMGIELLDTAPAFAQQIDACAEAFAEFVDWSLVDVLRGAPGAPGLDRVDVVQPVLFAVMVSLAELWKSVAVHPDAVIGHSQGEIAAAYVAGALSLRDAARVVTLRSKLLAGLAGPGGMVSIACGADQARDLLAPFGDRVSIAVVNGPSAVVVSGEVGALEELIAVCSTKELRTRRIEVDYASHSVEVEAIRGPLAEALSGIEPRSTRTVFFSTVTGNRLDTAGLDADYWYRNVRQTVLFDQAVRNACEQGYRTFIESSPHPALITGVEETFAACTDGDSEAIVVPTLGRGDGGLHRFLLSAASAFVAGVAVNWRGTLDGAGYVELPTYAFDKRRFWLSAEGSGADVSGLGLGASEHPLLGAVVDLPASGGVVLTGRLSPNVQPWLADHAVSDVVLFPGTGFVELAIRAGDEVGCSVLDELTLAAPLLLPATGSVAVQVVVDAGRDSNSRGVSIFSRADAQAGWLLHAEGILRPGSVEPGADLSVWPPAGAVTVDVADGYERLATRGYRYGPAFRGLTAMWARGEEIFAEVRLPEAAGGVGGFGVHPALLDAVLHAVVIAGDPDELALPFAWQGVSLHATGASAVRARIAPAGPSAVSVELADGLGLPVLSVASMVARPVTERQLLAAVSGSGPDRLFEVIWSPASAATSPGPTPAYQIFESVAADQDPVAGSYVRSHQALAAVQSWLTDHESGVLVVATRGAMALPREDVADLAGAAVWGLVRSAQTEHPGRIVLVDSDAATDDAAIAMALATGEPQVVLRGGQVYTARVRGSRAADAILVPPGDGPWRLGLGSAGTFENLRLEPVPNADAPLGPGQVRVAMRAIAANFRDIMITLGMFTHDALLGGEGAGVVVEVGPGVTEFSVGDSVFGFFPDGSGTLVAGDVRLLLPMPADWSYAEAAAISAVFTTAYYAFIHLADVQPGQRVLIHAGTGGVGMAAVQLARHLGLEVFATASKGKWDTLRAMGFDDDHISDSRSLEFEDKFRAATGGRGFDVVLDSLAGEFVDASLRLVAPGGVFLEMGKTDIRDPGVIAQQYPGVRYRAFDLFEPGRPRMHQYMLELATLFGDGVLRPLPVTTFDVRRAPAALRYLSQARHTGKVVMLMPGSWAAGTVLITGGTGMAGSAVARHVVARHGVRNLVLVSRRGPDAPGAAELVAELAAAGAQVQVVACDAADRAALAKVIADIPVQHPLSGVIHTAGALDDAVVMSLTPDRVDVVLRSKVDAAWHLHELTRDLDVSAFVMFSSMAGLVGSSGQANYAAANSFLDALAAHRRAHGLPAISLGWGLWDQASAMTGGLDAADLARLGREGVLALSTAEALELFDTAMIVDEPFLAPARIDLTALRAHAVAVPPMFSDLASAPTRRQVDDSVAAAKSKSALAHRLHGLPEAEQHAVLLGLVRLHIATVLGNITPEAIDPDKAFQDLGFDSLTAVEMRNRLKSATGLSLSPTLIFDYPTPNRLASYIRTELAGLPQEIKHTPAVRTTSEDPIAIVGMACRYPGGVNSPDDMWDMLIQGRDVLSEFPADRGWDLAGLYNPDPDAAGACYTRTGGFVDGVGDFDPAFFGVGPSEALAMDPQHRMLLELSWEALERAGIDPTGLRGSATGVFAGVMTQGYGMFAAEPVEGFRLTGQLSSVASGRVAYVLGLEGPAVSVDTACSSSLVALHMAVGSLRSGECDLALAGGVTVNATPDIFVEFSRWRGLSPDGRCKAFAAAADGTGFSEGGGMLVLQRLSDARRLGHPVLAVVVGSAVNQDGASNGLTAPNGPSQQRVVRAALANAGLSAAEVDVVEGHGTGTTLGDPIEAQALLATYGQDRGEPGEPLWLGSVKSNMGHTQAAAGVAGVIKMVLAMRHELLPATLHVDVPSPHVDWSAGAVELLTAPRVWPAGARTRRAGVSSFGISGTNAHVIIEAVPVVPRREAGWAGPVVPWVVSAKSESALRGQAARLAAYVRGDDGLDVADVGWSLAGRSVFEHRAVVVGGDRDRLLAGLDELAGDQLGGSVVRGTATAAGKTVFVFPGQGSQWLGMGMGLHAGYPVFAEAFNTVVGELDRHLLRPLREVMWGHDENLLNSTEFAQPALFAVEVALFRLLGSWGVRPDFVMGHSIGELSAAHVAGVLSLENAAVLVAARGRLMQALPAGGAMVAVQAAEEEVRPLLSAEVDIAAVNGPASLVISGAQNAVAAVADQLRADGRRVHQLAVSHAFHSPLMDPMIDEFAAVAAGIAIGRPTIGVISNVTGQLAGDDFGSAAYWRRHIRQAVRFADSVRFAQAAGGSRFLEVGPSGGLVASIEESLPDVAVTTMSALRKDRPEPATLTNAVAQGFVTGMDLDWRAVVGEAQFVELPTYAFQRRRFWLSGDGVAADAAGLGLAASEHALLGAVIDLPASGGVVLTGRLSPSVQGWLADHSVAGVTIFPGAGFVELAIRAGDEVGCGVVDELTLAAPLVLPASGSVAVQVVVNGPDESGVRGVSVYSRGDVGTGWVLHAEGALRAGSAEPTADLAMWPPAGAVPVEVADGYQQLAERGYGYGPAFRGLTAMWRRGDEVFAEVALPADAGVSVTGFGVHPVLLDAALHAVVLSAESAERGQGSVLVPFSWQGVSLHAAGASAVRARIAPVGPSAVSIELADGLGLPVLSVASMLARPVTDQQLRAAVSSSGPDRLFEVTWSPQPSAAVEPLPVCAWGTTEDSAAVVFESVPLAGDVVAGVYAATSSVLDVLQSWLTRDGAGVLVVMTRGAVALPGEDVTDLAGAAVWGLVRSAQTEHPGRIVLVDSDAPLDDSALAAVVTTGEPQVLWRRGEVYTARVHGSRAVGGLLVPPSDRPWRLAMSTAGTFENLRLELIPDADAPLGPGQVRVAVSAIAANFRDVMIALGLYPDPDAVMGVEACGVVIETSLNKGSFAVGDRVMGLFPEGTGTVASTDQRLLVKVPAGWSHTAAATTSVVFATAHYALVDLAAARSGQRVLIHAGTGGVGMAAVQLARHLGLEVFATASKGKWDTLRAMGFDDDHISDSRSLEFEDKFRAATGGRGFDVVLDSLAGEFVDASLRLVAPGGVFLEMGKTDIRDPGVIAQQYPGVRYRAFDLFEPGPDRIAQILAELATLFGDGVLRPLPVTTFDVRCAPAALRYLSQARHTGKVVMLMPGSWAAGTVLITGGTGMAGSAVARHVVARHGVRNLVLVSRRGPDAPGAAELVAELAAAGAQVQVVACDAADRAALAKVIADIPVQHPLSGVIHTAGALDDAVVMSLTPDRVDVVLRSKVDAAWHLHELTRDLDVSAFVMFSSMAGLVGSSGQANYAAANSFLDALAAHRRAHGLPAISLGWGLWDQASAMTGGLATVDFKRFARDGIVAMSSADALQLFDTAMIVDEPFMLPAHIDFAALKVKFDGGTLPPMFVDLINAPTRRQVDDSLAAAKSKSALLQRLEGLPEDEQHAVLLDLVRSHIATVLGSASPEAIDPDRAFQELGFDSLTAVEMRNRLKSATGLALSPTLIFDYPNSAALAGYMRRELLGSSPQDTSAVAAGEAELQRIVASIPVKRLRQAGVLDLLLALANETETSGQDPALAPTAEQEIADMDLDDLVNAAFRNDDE
Structure (SMILES),"14C labelling of protein, SDS-PAGE phosphorimaging (PKS12 [1])",inhibition at 100 μM (PKS12 [2])
CC(C)(COP(=O)(O)OP(=O)(O)OC[C@H]1O[C@@H](n2cnc3c(N)ncnc32)[C@H](O)[C@@H]1OP(=O)(O)O)[C@@H](O)C(=O)NCCC(=O)NCCSC(=O)CC(=O)O [malonyl CoA],SDS-PAGE gel-binding assays clearly showed that PKS12 could be radiolabeled with both of these substrates,–
CC(C(=O)O)C(=O)SCCNC(=O)CCNC(=O)[C@H](O)C(C)(C)COP(=O)(O)OP(=O)(O)OC[C@H]1O[C@@H](n2cnc3c(N)ncnc32)[C@H](O)[C@@H]1OP(=O)(O)O (stereo partly drawn) [methylmalonyl CoA],SDS-PAGE gel-binding assays clearly showed that PKS12 could be radiolabeled with both of these substrates,–
C/C=C/C/C=C/CCC(=O)[C@H]1O[C@H]1C(N)=O [cerulenin],–,incubation of PKS12 protein with KS inhibitor cerulenin showed no radioactive bands

# — publication PMC2443190, “Novel Intermolecular Iterative Mechanism for Biosynthesis of Mycoketide Catalyzed by a Bimodular Polyketide Synthase” (PLoS Biology, 2008)
